Experimental data: patent US20230310388A1, “Methods and Compositions for Treating Fungal Infections” (Neoculi Pty Ltd, priority 2020, published 2023)
In brackets after ≈: the same amount, converted by molar mass. Where two headings read alike, the source gives them in different places.

Key:
Type in all cases: cell-based
Cryptococcus neoformans [1] = assay: CLSI broth microdilution MIC (Example 6); details: for MIC: Cryptococcus neoformans, read-out: MIC
In short: (§1)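 CLSI broth microdilution in RPMI 1640, compounds serially double-diluted, inoculum about 2×10^3 cells/mL. Incubation at 35° C for 24-48 hours. MICs determined per isolate in duplicate, with a third repeat if values differed.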

Candida albicans [2] = assay: CLSI broth microdilution MIC (Example 6); details: read-out: MIC
In short: as §1

Candida parapsilosis = assay: CLSI broth microdilution MIC (Example 3); details: Candida parapsilosis ATCC 22019
Experimental: (§2) Antifungal minimum inhibitory concentration (MIC) testing was undertaken as recommended by the CLSI. Briefly, antifungal susceptibility tests were performed for amphotericin B, robenidine (NCL812) and 5 robenidine analogs (NCL062, NCL195, NCL219, NCL259, NCL265) by standard broth microdilution method (CLSI) in RPMI 1640. Various concentrations (ranging from high to low) of the selected compounds were prepared in RPMI 1640 medium by double dilution in 96-well microtitre plates. Each well contained an inoculum of approximately 2×10^3 cells/mL. The wells without addition of drugs served as negative (no inoculum) and positive (inoculum only) growth controls. Microtitre plates were incubated at 35° C. for 24-48 hours. […] Antifungal MICs were determined for each isolate in duplicate; if the values obtained were different, the MIC test was repeated a third time. Antifungal susceptibility tests were performed for amphotericin B and NCL analogs by standard broth microdilution method (CLSI). Briefly, various concentrations (ranging from high to low) of the selected compounds were prepared in RPMI 1640 medium by double dilution in the 96-well plates. Each well contained an inoculum of approximately 2×10^3 cells/mL. The wells without addition of drugs served as a negative control. Micro plates were incubated at 35° C. for 48 hour and read spectrophotometrically at 600 nm, using a microplate reader (Multiskan-EX; Thermo Elect. Corp., USA).

Candida albicans [3] = assay: CLSI broth microdilution MIC (Example 3); details: Candida albicans, read-out: MIC
Experimental: as §2

Malassezia pachydermatis = assay: MIC, mSAB broth microdilution (Example 1)
Source text: There is no recommended Clinical & Laboratory Standards Institute (CLSI) standard for M. pachydermatis. In the literature there are a number of papers which have developed Minimum Inhibitory Concentration (MIC) methodology for Malassezia species isolated from both humans and animals (ie both lipophilic and non-lipophilic species). In all papers, the methodology has been altered from the original CLSI protocols in order to overcome four main problem areas involved in testing this yeast. • 1) Finding a suitable growth medium for Malassezia, especially the lipophilic species. […] When testing the azole group of anti-fungal agents, there is also the well known trailing end point problem with MIC determination. Trailing occurs when the turbidity continually decreases as the drug concentration increases but the suspension fails to become optically clear (partial inhibition of growth over an extended range of antifungal concentrations). The following method was originally developed by Eichenberg et al. (2003) (mSAB broth microdilution method). The mSAB method was devised to follow as closely as possible the CLSI guidelines whilst still allowing for the distinct biochemical and growth requirements of M. pachydermatis. Sabouraud dextrose broth with 1% Tween 80 was chosen as the assay medium as it allowed for excellent growth of the organism. Higher inoculum concentrations (1-4×10^6 CFU/ml) and increased time of incubation (48 to 72 hours) were used to enable sufficient growth of the test strains.

Cryptococcus neoformans [4] = assay: CLSI broth microdilution MIC (Example 5)
In short: (§3)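 Broth microdilution per CLSI in RPMI 1640 with twofold compound dilutions, inoculum about 2×10^3 cells/mL. Plates incubated at 35° C for 24-48 hours. MIC determined per isolate in duplicate, with a third repeat when the two values differed.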

Candida albicans [5] = assay: CLSI broth microdilution MIC (Example 5); details: for MIC: Candida albicans, read-out: MIC
In short: as §3

[6] = ATCC90028, Candida albicans ATCC 90028

N=C(N/N=C/c1ccc(Cl)cc1)N/N=C/c1ccc(Cl)cc1 [NCL812, robenidine, reference compound]
MIC (Cryptococcus neoformans [1]; Cryptococcus neoformans SA1): 2 µg/mL (≈ 5.98 µM) | MIC (Cryptococcus neoformans [1]; Cryptococcus neoformans SA2): 2 µg/mL (≈ 5.98 µM) | MIC (Cryptococcus neoformans [1]; human clinical isolate C. neoformans serotype A/D hybrid): 16 µg/mL (≈ 47.9 µM) | MIC (Cryptococcus neoformans [1]; human clinical isolate C. neoformans var grubii 16-90050434): 32 µg/mL (≈ 95.7 µM) | MIC (Cryptococcus neoformans [1]; human clinical isolate C. neoformans var grubii 17-90028233): 32 µg/mL (≈ 95.7 µM) | MIC (Cryptococcus neoformans [1]; human clinical isolate C. neoformans var grubii 17-93996464): 16 µg/mL (≈ 47.9 µM) | activity against all isolates (Cryptococcus neoformans [1]; Example 6 isolates, summary in words): active | activity against one or more isolates of Candida albicans and Cryptococcus neoformans (Cryptococcus neoformans [1]; summary in words): highly active | MIC (Candida albicans [2]; [6]): 2 µg/mL (≈ 5.98 µM) | MIC (Candida albicans [2]; Candida albicans, C. albicans SA3): 2 µg/mL (≈ 5.98 µM) | MIC (Candida parapsilosis; 2nd): 0.5 µg/mL (≈ 1.5 µM) | MIC (Candida parapsilosis; Lodderomyces parapsilosis, ATCC22019, 1st, read-out: MIC): 0.5 µg/mL (≈ 1.5 µM) | MIC (Candida albicans [3]; ATCC90028, Candida albicans ATCC 90028, 1st): 0.25 µg/mL (≈ 0.748 µM) | MIC (Candida albicans [3]; ATCC90028, Candida albicans ATCC 90028, 2nd): 0.5 µg/mL (≈ 1.5 µM) | MIC (Candida albicans [3]; two Candida albicans and one Candida parapsilosis isolates, summary range): 0.5 to 8 µg/mL (≈ 1.5 to 23.9 µM) | MIC (Candida albicans [3]; 1st): 0.5 µg/mL (≈ 1.5 µM) | MIC (Candida albicans [3]; 2nd): 1 µg/mL (≈ 2.99 µM) | MIC (Malassezia pachydermatis; Malassezia isolate M-036): 2 µg/mL (≈ 5.98 µM) | MIC (Malassezia pachydermatis; Malassezia isolate M-066): 2 µg/mL (≈ 5.98 µM) | MIC (Malassezia pachydermatis; Malassezia pachydermatis, Malassezia isolate M1-017, read-out: MIC): 2 µg/mL (≈ 5.98 µM) | MIC (Malassezia pachydermatis; Malassezia pachydermatis, Malassezia isolate M-018, read-out: MIC): 2 µg/mL (≈ 5.98 µM) | MIC (Malassezia pachydermatis; Malassezia pachydermatis, Malassezia isolate M-020, read-out: MIC): 2 µg/mL (≈ 5.98 µM) | MIC (Malassezia pachydermatis; Malassezia pachydermatis, Malassezia isolate M-036, read-out: MIC): 1 µg/mL (≈ 2.99 µM) | MIC (Malassezia pachydermatis; Malassezia pachydermatis, Malassezia isolate M-037, read-out: MIC): 2 µg/mL (≈ 5.98 µM) | MIC (Malassezia pachydermatis; Malassezia pachydermatis, Malassezia isolate M-038, read-out: MIC): 1 µg/mL (≈ 2.99 µM) | MIC (Malassezia pachydermatis; Malassezia pachydermatis, Malassezia isolate M-040, read-out: MIC): 2 µg/mL (≈ 5.98 µM) | MIC (Malassezia pachydermatis; Malassezia pachydermatis, Malassezia isolate M-052, read-out: MIC): 1 µg/mL (≈ 2.99 µM) | MIC (Malassezia pachydermatis; Malassezia pachydermatis, Malassezia isolate M-055, read-out: MIC): 1 µg/mL (≈ 2.99 µM) | MIC (Malassezia pachydermatis; Malassezia pachydermatis, Malassezia isolate M-060, read-out: MIC): 1 µg/mL (≈ 2.99 µM) | MIC (Malassezia pachydermatis; Malassezia pachydermatis, Malassezia isolate M-066, read-out: MIC): 1 µg/mL (≈ 2.99 µM) | MIC (Malassezia pachydermatis; Malassezia pachydermatis, Malassezia isolate M-067, read-out: MIC): 1 µg/mL (≈ 2.99 µM) | MIC (Malassezia pachydermatis; Malassezia pachydermatis, Malassezia isolate M-069, read-out: MIC): 2 µg/mL (≈ 5.98 µM) | activity against all 13 isolates of Malassezia pachydermatis (Malassezia pachydermatis; summary in words): highly active | MIC (Cryptococcus neoformans [4]; Cryptococcus neoformans SA1, read-out: MIC): 2 µg/mL (≈ 5.98 µM) | MIC (Cryptococcus neoformans [4]; Cryptococcus neoformans SA2): 2 µg/mL (≈ 5.98 µM) | MIC (Candida albicans [5]; [6]): 2 µg/mL (≈ 5.98 µM) | MIC (Candida albicans [5]; clinical isolate C. albicans 12-93301752 Azole Resistant): 2 µg/mL (≈ 5.98 µM) | MIC (Candida albicans [5]; clinical isolate C. albicans 14-90045999 Azole Resistant): 2 µg/mL (≈ 5.98 µM) | MIC (Candida albicans [5]; clinical isolate C. albicans 15-45171061): 1 µg/mL (≈ 2.99 µM) | MIC (Candida albicans [5]; clinical isolate C. albicans 15-91329871): 2 µg/mL (≈ 5.98 µM) | MIC (Candida albicans [5]; clinical isolate C. albicans 16-24136919 Azole Resistant): 2 µg/mL (≈ 5.98 µM) | MIC (Candida albicans [5]; clinical isolate C. albicans 16-46177400): 4 µg/mL (≈ 12 µM) | MIC (Candida albicans [5]; clinical isolate C. albicans 16-90050810): 2 µg/mL (≈ 5.98 µM) | MIC (Candida albicans [5]; clinical isolate C. albicans 16-90054237): 2 µg/mL (≈ 5.98 µM) | MIC (Candida albicans [5]; clinical isolate C. albicans 18-144-00196): 0.5 µg/mL (≈ 1.5 µM) | MIC (Candida albicans [5]; clinical isolate C. albicans 18-148-08188 Azole Resistant): 1 µg/mL (≈ 2.99 µM) | MIC (Candida albicans [5]; C. albicans SA3): 2 µg/mL (≈ 5.98 µM) | activity against all tested isolates of Cryptococcus neoformans and Candida albicans (Candida albicans [5]; summary in words): active | activity against one or more isolates of Cryptococcus neoformans and Candida albicans (Candida albicans [5]; summary in words): highly active
